In patent US12325701B2, “YKL-40 inhibitors and their therapeutic” (Molecure S.A., priority 2022, dated 2025):
pIC50: −log10 of the molar value. Structures can show the parent of a compound that is named as a salt.

Biological target: YKL-40 (YKL-40-histag, chitin binding site) (Homo sapiens (Human), UniProt P36222)
Test: YKL-40:4 assay, competitive chitin binding site AlphaScreen
Conditions: not given

Sequence of YKL-40 (YKL-40-histag, chitin binding site) (P36222 22-383): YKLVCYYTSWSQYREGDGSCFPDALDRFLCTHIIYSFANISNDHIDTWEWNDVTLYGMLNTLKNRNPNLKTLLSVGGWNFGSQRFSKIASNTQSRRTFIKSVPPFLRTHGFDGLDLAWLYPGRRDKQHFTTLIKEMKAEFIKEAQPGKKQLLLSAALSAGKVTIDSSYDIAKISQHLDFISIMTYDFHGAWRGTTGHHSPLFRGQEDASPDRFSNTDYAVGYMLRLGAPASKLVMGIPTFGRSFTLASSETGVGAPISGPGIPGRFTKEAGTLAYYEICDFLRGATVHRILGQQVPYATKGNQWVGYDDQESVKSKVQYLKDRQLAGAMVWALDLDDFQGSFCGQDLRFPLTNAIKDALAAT

Structure (SMILES)	pIC50
C[C@H]1CN(C2CCN(c3c(F)cccc3F)CC2)[C@@H](Cc2ccc(Cl)cc2)CO1 [Compound 123, (2S,5S)-5-(4-chlorobenzyl)-4-(1-(2,6-difluorophenyl)piperidin-4-yl)-2-methylmorpholine 2,2,2-trifluoroacetate]	< 5.00
Cc1cccnc1N1CCC(N2C[C@H](C)OC[C@@H]2Cc2ccc(Cl)cc2)CC1 [Example 16, (2S,5S)-5-(4-chlorobenzyl)-2-methyl-4-(1-(3-methylpyridin-2-yl)piperidin-4-yl)morpholine 2,2,2-trifluoroacetate]	< 5.00
C[C@H]1CN(C2CCN(c3ncccc3CO)CC2)[C@@H](Cc2ccc(Cl)cc2)CO1 [Compound 120, (2-(4-((2S,5S)-5-(4-chlorobenzyl)-2-methylmorpholino)piperidin-1-yl)pyridin-3-yl)methanol 2,2,2-trifluoroacetate]	< 5.00
C[C@H]1CN(C2CCN(c3nncs3)CC2)[C@@H](Cc2ccc(Cl)cc2)CO1 [Compound 181, (2S,5S)-4-(1-(1,3,4-thiadiazol-2-yl)piperidin-4-yl)-5-(4-chlorobenzyl)-2-methylmorpholine 2,2,2-trifluoroacetate]	< 5.00
C[C@H]1CN(C2CCN(c3ccncc3)CC2)[C@@H](Cc2ccc(Cl)cc2)CO1 [Example 28, (2S,5S)-5-(4-chlorobenzyl)-2-methyl-4-(1-(pyridin-4-yl)piperidin-4-yl)morpholine 2,2,2-trifluoroacetate]	< 5.00
Clc1ccc(C[C@H]2COc3ccccc3CN2C2CCN(c3ccccn3)CC2)cc1 [Compound 81, (S)-3-(4-chlorobenzyl)-4-(1-(pyridin-2-yl)piperidin-4-yl)-2,3,4,5-tetrahydrobenzof[1,4]oxazepine hydrochloride]	< 5.00
COC(=O)c1cccnc1N1CCC(N2C[C@H](C)OC[C@@H]2Cc2ccc(Cl)cc2)CC1 [Compound 117, methyl 2-(4-((2S,5S)-5-(4-chlorobenzyl)-2-methylmorpholino)piperidin-1-yl)nicotinate 2,2,2-trifluoroacetate]	< 5.00
C[C@H]1CN(C2CCN(c3ncnc(C#N)n3)CC2)[C@@H](Cc2ccc(Cl)cc2)CO1 [Compound 173, 4-(4-((2S,5S)-5-(4-chlorobenzyl)-2-methylmorpholino)piperidin-1-yl)-1,3,5-triazine-2-carbonitrile 2,2,2-trifluoroacetate]	< 5.00
CC(C)c1nc(N2CCC(N3C[C@H](C)OC[C@@H]3Cc3ccc(Cl)cc3)CC2)no1 [Compound 163, (2S,5S)-5-(4-chlorobenzyl)-4-(1-(5-isopropyl-1,2,4-oxadiazol-3-yl)piperidin-4-yl)-2-methylmorpholine 2,2,2-trifluoroacetate]	< 5.00
C[C@H]1CN(C2CCN(c3cc(C(=O)O)ccn3)CC2)[C@@H](Cc2ccc(Cl)cc2)CO1 [Compound 125, 2-(4-((2S,5S)-5-(4-chlorobenzyl)-2-methylmorpholino)piperidin-1-yl)isonicotinic acid 2,2,2-trifluoroacetate]	< 5.00
C[C@H]1CN(C2CCN(c3cc(C(C)(C)O)ccn3)CC2)[C@@H](Cc2ccc(Cl)cc2)CO1 [Compound 131, 2-(2-(4-((2S,5S)-5-(4-chlorobenzyl)-2-methylmorpholino)piperidin-1-yl)pyridin-4-yl)propan-2-ol 2,2,2-trifluoroacetate]	< 5.00
C[C@H]1CN(C2CCN(c3ncns3)CC2)[C@@H](Cc2ccc(Cl)cc2)CO1 [Compound 179, (2S,5S)-4-(1-(1,2,4-thiadiazol-5-yl)piperidin-4-yl)-5-(4-chlorobenzyl)-2-methylmorpholine 2,2,2-trifluoroacetate]	< 5.00
C[C@H]1CN(C2CCN(c3ccc(C#N)cn3)CC2)[C@@H](Cc2ccc(Cl)cc2)CO1 [Example 19, 6-(4-((2S,5S)-5-(4-chlorobenzyl)-2-methylmorpholino)piperidin-1-yl)nicotinonitrile 2,2,2-trifluoroacetate]	< 5.00
C[C@H]1CN(C2CCN(c3ncnc(N(C)C)n3)CC2)[C@@H](Cc2ccc(Cl)cc2)CO1 [Compound 175, 4-(4-((2S,5S)-5-(4-chlorobenzyl)-2-methylmorpholino)piperidin-1-yl)-N,N-dimethyl-1,3,5-triazin-2-amine 2,2,2-trifluoroacetate]	< 5.00
Cc1noc(N2CCC(N3C[C@H](C)OC[C@@H]3Cc3ccc(Cl)cc3)CC2)n1 [Compound 188, (2S,5S)-5-(4-chlorobenzyl)-2-methyl-4-(1-(3-methyl-1,2,4-oxadiazol-5-yl)piperidin-4-yl)morpholine 2,2,2-trifluoroacetate]	< 5.00
C[C@H]1CN(C2CCN(c3cc(F)ncn3)CC2)[C@@H](Cc2ccc(Cl)cc2)CO1 [Example 24, (2S,5S)-5-(4-chlorobenzyl)-4-(1-(6-fluoropyrimidin-4-yl)piperidin-4-yl)-2-methylmorpholine 2,2,2-trifluoroacetate]	< 5.00
C[C@H]1CN(C2CCN(c3cc(CO)ccn3)CC2)[C@@H](Cc2ccc(Cl)cc2)CO1 [Compound 130, (2-(4-((2S,5S)-5-(4-chlorobenzyl)-2-methylmorpholino)piperidin-1-yl)pyridin-4-yl)methanol 2,2,2-trifluoroacetate]	< 5.00
C[C@H]1CN(C2CCN(c3ncc(F)cc3F)CC2)[C@@H](Cc2ccc(Cl)cc2)CO1 [Example 25, (2S,5S)-5-(4-chlorobenzyl)-4-(1-(3,5-difluoropyridin-2-yl)piperidin-4-yl)-2-methylmorpholine 2,2,2-trifluoroacetate]	< 5.00
CN1C[C@H](Cc2ccc(Cl)cc2)N(C2CCN(c3cc(Cl)ccn3)CC2)C[C@@H]1COc1ccc2ccccc2c1 [Compound 84, (2S,5R)-2-(4-chlorobenzyl)-1-(1-(4-chloropyridin-2-yl)piperidin-4-yl)-4-methyl-5-((naphthalen-2-yloxy)methyl)piperazine 2,2,2-trifluoroacetate]	< 5.00
C[C@H]1CN(C2CCN(c3ccccc3C#N)CC2)[C@@H](Cc2ccc(Cl)cc2)CO1 [Compound 119, 2-(4-((2S,5S)-5-(4-chlorobenzyl)-2-methylmorpholino)piperidin-1-yl)benzonitrile 2,2,2-trifluoroacetate]	< 5.00
C[C@H]1CN(C2CCN(c3ncnc(Cl)n3)CC2)[C@@H](Cc2ccc(Cl)cc2)CO1 [Compound 169, (2S,5S)-4-(1-(4-chloro-1,3,5-triazin-2-yl)piperidin-4-yl)-5-(4-chlorobenzyl)-2-methylmorpholine 2,2,2-trifluoroacetate]	< 5.00
Cc1ncnc(N2CCC(N3C[C@H](C)OC[C@@H]3Cc3ccc(Cl)cc3)CC2)n1 [Compound 172, (2S,5S)-5-(4-chlorobenzyl)-2-methyl-4-(1-(4-methyl-1,3,5-triazin-2-yl)piperidin-4-yl)morpholine 2,2,2-trifluoroacetate]	< 5.00
COc1ncnc(N2CCC(N3C[C@H](C)OC[C@@H]3Cc3ccc(Cl)cc3)CC2)n1 [Compound 171, (2S,5S)-5-(4-chlorobenzyl)-4-(1-(4-methoxy-1,3,5-triazin-2-yl)piperidin-4-yl)-2-methylmorpholine 2,2,2-trifluoroacetate]	< 5.00
C[C@H]1CN(C2CCN(c3cccc(F)c3)CC2)[C@@H](Cc2ccc(Cl)cc2)CO1 [Compound 127, (2S,5S)-5-(4-chlorobenzyl)-4-(1-(3-fluorophenyl)piperidin-4-yl)-2-methylmorpholine 2,2,2-trifluoroacetate]	< 5.00
C[C@H]1CN(C2CCN(c3ncnc(N)n3)CC2)[C@@H](Cc2ccc(Cl)cc2)CO1 [Compound 174, 4-(4-((2S,5S)-5-(4-chlorobenzyl)-2-methylmorpholino)piperidin-1-yl)-1,3,5-triazin-2-amine 2,2,2-trifluoroacetate]	< 5.00
C[C@H]1CN(C2CCN(c3ncccc3C(N)=O)CC2)[C@@H](Cc2ccc(Cl)cc2)CO1 [Compound 114, 2-(4-((2S,5S)-5-(4-chlorobenzyl)-2-methylmorpholino)piperidin-1-yl)nicotinamide 2,2,2-trifluoroacetate]	< 5.00
C[C@H]1CN(C2CCN(c3cc(=O)[nH]cn3)CC2)[C@@H](Cc2ccc(Cl)cc2)CO1 [Compound 167, 6-(4-((2S,5S)-5-(4-chlorobenzyl)-2-methylmorpholino)piperidin-1-yl)pyrimidin-4(3H)-one 2,2,2-trifluoroacetate]	< 5.00
COc1cccnc1N1CCC(N2C[C@H](C)OC[C@@H]2Cc2ccc(Cl)cc2)CC1 [Compound 162, (2S,5S)-5-(4-chlorobenzyl)-4-(1-(3-methoxypyridin-2-yl)piperidin-4-yl)-2-methylmorpholine 2,2,2-trifluoroacetate]	< 5.00

Same assay, conditions: competition with biotinylated compound 4, 20 nM; YKL-40-histag 2.5 nM; read-out: YKL-40:4, IC50/Kd (IC50 range)

Structure (SMILES)	pIC50
C[C@H]1CN(C2CCN(c3cnc(C(F)(F)F)cn3)CC2)[C@@H](Cc2ccc(Cl)cc2)CO1 [Compound 158, (2S,5S)-5-(4-chlorobenzyl)-2-methyl-4-(1-(5-(trifluoromethyl)pyrazin-2-yl)piperidin-4-yl)morpholine hydrochloride]	< 5.00
CC(C)C1OC[C@H](Cc2ccc(Cl)cc2)N1C1CCN(c2ccccn2)CC1 (stereo partly drawn) [Compound 150, (4S)-4-(4-chlorobenzyl)-2-isopropyl-3-(1-(pyridin-2-yl)piperidin-4-yl)oxazolidine hydrochloride]	< 5.00
C[C@H]1CN(C2CCN(c3ccnc(Cl)n3)CC2)[C@@H](Cc2ccc(Cl)cc2)CO1 [Compound 66, (2S,5S)-5-(4-chlorobenzyl)-4-(1-(2-chloropyrimidin-4-yl)piperidin-4-yl)-2-methylmorpholine]	< 5.00
Cc1ccc(N2CCC(N3C[C@H](C)OC[C@@H]3Cc3ccc(Cl)cc3)CC2)nc1 [Compound 136, (2S,5S)-5-(4-chlorobenzyl)-2-methyl-4-(1-(5-methylpyridin-2-yl)piperidin-4-yl)morpholine hydrochloride]	< 5.00
C[C@H]1CN(C2CCN(c3cc(C(F)(F)F)ncn3)CC2)[C@@H](Cc2ccc(Cl)cc2)CO1 [Compound 145, (2S,5S)-5-(4-chlorobenzyl)-2-methyl-4-(1-(6-(trifluoromethyl)pyrimidin-4-yl)piperidin-4-yl)morpholine hydrochloride]	< 5.00
